Measurements from paper PMC12575627 (Nature Communications, 2025).

How the values were obtained:
Assay in all cases: […]CABP radioligand binding
Assay type in all cases: biochemical
Conditions in all cases: labelled compound, E. coli soluble protein
Rr^cL2 = target: T1, Rr^cL2 (Rhodospirillum rubrum, UniProt P04718)
T1 sequence (P04718 1-466): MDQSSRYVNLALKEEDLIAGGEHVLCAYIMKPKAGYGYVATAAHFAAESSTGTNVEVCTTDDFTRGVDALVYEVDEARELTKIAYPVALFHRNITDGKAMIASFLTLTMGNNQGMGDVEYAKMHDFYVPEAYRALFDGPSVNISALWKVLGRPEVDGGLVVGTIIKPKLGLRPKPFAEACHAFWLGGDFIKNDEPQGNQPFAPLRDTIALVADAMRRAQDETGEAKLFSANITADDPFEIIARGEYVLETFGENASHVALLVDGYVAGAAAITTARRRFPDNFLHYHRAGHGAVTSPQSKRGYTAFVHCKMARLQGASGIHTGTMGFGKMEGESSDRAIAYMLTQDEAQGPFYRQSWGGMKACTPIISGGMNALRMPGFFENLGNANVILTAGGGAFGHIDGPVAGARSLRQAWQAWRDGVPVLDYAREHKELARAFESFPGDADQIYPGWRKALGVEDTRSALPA

RrL^c2 = target: T2, RrL^c2 (Rhodospirillum rubrum, UniProt P04718)
T2 sequence (P04718 1-466): T1 sequence (P04718 1-466)

RrRubisco (RrL2) = target: T3, RrRubisco (RrL2) (Rhodospirillum rubrum, UniProt P04718)
T3 sequence (P04718 1-466): T1 sequence (P04718 1-466)

Compound: O=C(O)[C@@](O)(COP(=O)(O)O)[C@H](O)[C@H](O)COP(=O)(O)O [14CABP]
- 14CABP radioligand binding (active-site quantification) (Rr^cL2): CLP tagging to RbcL was found to have no measurable impact on RrRubisco formation
- 14CABP radioligand binding (active-site quantification) (RrL^c2): CLP tagging to RbcL was found to have no measurable impact on RrRubisco formation
- 14CABP radioligand binding (active-site quantification) (RrRubisco (RrL2)): CLP tagging to RbcL was found to have no measurable impact on RrRubisco formation
